Experimental data reported in patent US11767322B2 (BRISTOL-MYERS SQUIBB COMPANY, priority 2020, dated 2023).
pIC50: −log10 of the molar value. Where two headings read alike, the source gives them in different places.

Legend:
[1] = system: MLKL phosphorylation in HT29-L23 human colorectal adenocarcinoma cells; test: MLKL phosphorylation high-content assay; assay type: cell-based
[2] = biological target: T1, His-GST-TVMV-hRIPK1(1-324) (Homo sapiens, UniProt Q13546); test: biochemical; assay type: binding; settings: read-out: RIPK1 IC50
T1 construct: The coding region of human RIPK1(1-324) flanked by NdeI site at 5′ end; made in house; host or cells: Spodoptera frugiperda Sf9 insect cells (baculovirus, Bac-to-Bac)
T1 sequence (Q13546 1-324): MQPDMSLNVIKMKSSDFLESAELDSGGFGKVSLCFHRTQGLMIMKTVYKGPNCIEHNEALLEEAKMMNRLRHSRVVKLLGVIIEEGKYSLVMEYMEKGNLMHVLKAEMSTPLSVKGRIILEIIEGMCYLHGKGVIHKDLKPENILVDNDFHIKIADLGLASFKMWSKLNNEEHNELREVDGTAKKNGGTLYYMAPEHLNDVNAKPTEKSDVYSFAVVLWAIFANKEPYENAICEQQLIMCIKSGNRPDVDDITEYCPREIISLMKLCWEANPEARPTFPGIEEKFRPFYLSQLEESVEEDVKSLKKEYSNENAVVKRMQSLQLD

[3] = Homo sapiens, 6 h, read-out: pMLKL IC50, HT29-L23 cells, necroptosis induced with TNFα, SMAC mimetic and Z-VAD, 6 h, maximal inhibition defined by Nec1s
[4] = HTRF probe displacement, 1 h at rt
[5] = read-out: pMLKL IC50, HT29-L23 cells, necroptosis induced with TNFα, SMAC mimetic and Z-VAD, 6 h, maximal inhibition defined by Nec1s
[6] = Homo sapiens, 6 h, HT29-L23 cells, necroptosis induced with TNFα, SMAC mimetic and Z-VAD, 6 h, maximal inhibition defined by Nec1s, read-out: pMLKL IC50

`Cc1ccc(-c2ccn3nc(N)nc3c2)c(F)c1C(=O)NCCC(C)(O)c1ccc(Cl)cc1` (racemic) [Example 17, 3-(2-amino-[1,2,4]triazolo[1,5-a]pyridin-7-yl)-N-(3-(4-chlorophenyl)-3-hydroxybutyl)-2-fluoro-6-methylbenzamide] was tested, and the pIC50 [1, 3] was 8.60 and the pIC50 [2, 4] was 8.72.
With `Cc1ccc(-c2ccn3nc(N)nc3c2)c(F)c1C(=O)NCC(F)(F)C(C)(O)c1ccc(F)cc1` (racemic) [Example 18, 3-(2-amino-[1,2,4]triazolo[1,5-a]pyridin-7-yl)-N-(2,2-difluoro-3-(4-fluorophenyl)-3-hydroxybutyl)-2-fluoro-6-methylbenzamide] the pIC50 [2, 4] was 8.05.
In the case of `Cc1ccc(-c2ccn3nc(N)nc3c2)c(F)c1C(=O)NCC(F)(F)C(OP(=O)(O)O)c1ccc(F)cc1` (racemic) [Example 161, 3-(3-(2-amino-[1,2,4]triazolo[1,5-a]pyridin-7-yl)-2-fluoro-6-methylbenzamido)-2,2-difluoro-1-(4-fluorophenyl)propyl dihydrogen phosphate, racemate], the pIC50 [1, 3] was 6.87 and the pIC50 [2, 4] was less than 4.82.
`Cc1ccc(-c2ccn3nc(N)nc3c2)c(F)c1C(=O)NCC(F)(F)[C@@H](O)c1ccc(F)cc1` (single isomer, unassigned) [Example 30] gave a pIC50 [1, 3] of 9.30 and a pIC50 [2, 4] of 8.35.
With `Cc1ccc(-c2ccn3nc(N)nc3c2)c(F)c1C(=O)NCCC(O)c1cccc(Cl)c1` (single isomer, unassigned) [Example 44, 3-(2-amino-[1,2,4]triazolo[1,5-a]pyridin-7-yl)-N-(3-(3-chlorophenyl)-3-hydroxypropyl)-2-fluoro-6-methylbenzamide] the pIC50 [1, 5] was 8.60 and the pIC50 [2, 4] was 8.89.
Molecule `Cc1ccc(-c2ccn3nc(N)nc3c2)c(F)c1C(=O)NCCC(O)c1cccc(Cl)c1` (single isomer, unassigned) [Example 45, 3-(2-amino-[1,2,4]triazolo[1,5-a]pyridin-7-yl)-N-(3-(3-chlorophenyl)-3-hydroxypropyl)-2-fluoro-6-methylbenzamide] has a pIC50 [1, 5] of 8.13 and a pIC50 [2, 4] of 8.52.
Molecule `Cc1ccc(-c2ccn3nc(N)nc3c2)c(F)c1C(=O)NCCC(O)c1cccc(F)c1` (single isomer, unassigned) [Example 64, 3-(2-amino-[1,2,4]triazolo[1,5-a]pyridin-7-yl)-2-fluoro-N-(3-(3-fluorophenyl)-3-hydroxypropyl)-6-methylbenzamide] has a pIC50 [1, 5] of 8.10 and a pIC50 [2, 4] of 7.92.
Molecule `[2H]C([2H])(CC([2H])(O)c1ccc(Cl)cc1)NC(=O)c1c(Cl)ccc(-c2ccn3nc(N)nc3c2)c1F` (single isomer, unassigned) [Example 76, 3-(2-amino-[1,2,4]triazolo[1,5-a]pyridin-7-yl)-6-chloro-N-(3-(4-chlorophenyl)-3-hydroxypropyl-1,1,3-d3)-2-fluorobenzamide] has a pIC50 [1, 5] of 8.48 and a pIC50 [2, 4] of 8.82.
`[2H]C([2H])(CC([2H])(O)c1ccc(Cl)cc1)NC(=O)c1c(Cl)ccc(-c2ccn3nc(N)nc3c2)c1F` (single isomer, unassigned) [Example 77, 3-(2-amino-[1,2,4]triazolo[1,5-a]pyridin-7-yl)-6-chloro-N-(3-(4-chlorophenyl)-3-hydroxypropyl-1,1,3-d3)-2-fluorobenzamide] was tested, and the pIC50 [1, 5] was 8.11 and the pIC50 [2, 4] was 8.54.
With `Nc1nc2cc(-c3ccc(Cl)c(C(=O)NCCC(O)c4ccc(F)cc4)c3F)ccn2n1` (single isomer, unassigned) [Example 79, 3-(2-amino-[1,2,4]triazolo[1,5-a]pyridin-7-yl)-6-chloro-2-fluoro-N-(3-(4-fluorophenyl)-3-hydroxypropyl)benzamide] the pIC50 [1, 3] was 7.72 and the pIC50 [2, 4] was 8.32.
`Nc1nc2cc(-c3ccc(Cl)c(C(=O)NCCC(O)c4ccc(F)cc4)c3F)ccn2n1` (single isomer, unassigned) [Example 80, 3-(2-amino-[1,2,4]triazolo[1,5-a]pyridin-7-yl)-6-chloro-2-fluoro-N-(3-(4-fluorophenyl)-3-hydroxypropyl)benzamide] showed a pIC50 [1, 3] of 7.57 and a pIC50 [2, 4] of 8.05.
With `Nc1nc2cc(-c3ccc(Cl)c(C(=O)NCCC(O)c4ccc(C(F)(F)F)cc4)c3F)ccn2n1` (single isomer, unassigned) [Example 85, 3-(2-amino-[1,2,4]triazolo[1,5-a]pyridin-7-yl)-6-chloro-2-fluoro-N-(3-hydroxy-3-(4-(trifluoromethyl)phenyl)propyl)benzamide] the pIC50 [1, 5] was 9.30 and the pIC50 [2, 4] was 8.68.
In the case of `Nc1nc2cc(-c3ccc(Cl)c(C(=O)NCCC(O)c4ccc(C(F)(F)F)cc4)c3F)ccn2n1` (single isomer, unassigned) [Example 86, 3-(2-amino-[1,2,4]triazolo[1,5-a]pyridin-7-yl)-6-chloro-2-fluoro-N-(3-hydroxy-3-(4-(trifluoromethyl)phenyl)propyl)benzamide], the pIC50 [1, 5] was 8.12 and the pIC50 [2, 4] was 8.66.
For `[2H]C([2H])([2H])c1cccc(C(O)C(F)(F)CNC(=O)c2c(C([2H])([2H])[2H])ccc(-c3ccn4nc(N)nc4c3)c2F)c1F` (single isomer, unassigned) [Example 206, 3-(2-amino-[1,2,4]triazolo[1,5-a]pyridin-7-yl)-N-(2,2-difluoro-3-(2-fluoro-3-(methyl-d3)phenyl)-3-hydroxypropyl)-2-fluoro-6-(methyl-d3)benzamide], the pIC50 [2, 4] was 8.11.
`Cc1ccc(-c2ccn3nc(N)nc3c2)c(F)c1C(=O)NCCC(O)c1ccc(Cl)c(Cl)c1` (stereo not drawn) [Example 32, 3-(2-amino-[1,2,4]triazolo[1,5-a]pyridin-7-yl)-N-(3-(3,4-dichlorophenyl)-3-hydroxypropyl)-2-fluoro-6-methylbenzamide] was tested, and the pIC50 [2, 4] was 8.66.
`CC(O)(c1ccc(F)cc1)C(F)(F)CNC(=O)c1c(Cl)ccc(-c2ccn3nc(N)nc3c2)c1F` (stereo not drawn) [Example 87, 3-(2-amino-[1,2,4]triazolo[1,5-a]pyridin-7-yl)-6-chloro-N-(2,2-difluoro-3-(4-fluorophenyl)-3-hydroxybutyl)-2-fluorobenzamide] gave a pIC50 [2, 4] of 8.07.
Work on `COc1ncc(-c2ccn3nc(N)nc3c2)cc1C(=O)NCC[C@H](O)c1ccc(Cl)cc1` [Example 157] yielded a pIC50 ([2]; Table 23, representative compounds from WO2018/148626) of 7.23.
Molecule `Cc1ccc(C(O)C(F)(F)CNC(=O)c2c(Cl)ccc(-c3ccn4nc(N)nc4c3)c2F)cc1` (stereo not drawn) [Example 172, 3-(2-amino-[1,2,4]triazolo[1,5-a]pyridin-7-yl)-6-chloro-N-(2,2-difluoro-3-hydroxy-3-(p-tolyl)propyl)-2-fluorobenzamide] has a pIC50 [2, 4] of 8.89.
For `Nc1nc2cc(-c3ccc(Cl)c(C(=O)NCC(F)(F)C(O)C4CCC(F)(F)CC4)c3F)ccn2n1` (stereo not drawn) [Example 256, 3-(2-amino-[1,2,4]triazolo[1,5-a]pyridin-7-yl)-6-chloro-N-(3-(4,4-difluorocyclohexyl)-2,2-difluoro-3-hydroxypropyl)-2-fluorobenzamide], the pIC50 [2, 4] was 8.49.
Work on `Nc1nc2cc(-c3ccc(F)c(C(=O)NCC(F)(F)[C@@H](F)c4ccc(F)cc4)c3F)ccn2n1` [Example 285, (S)-3-(2-amino-[1,2,4]triazolo[1,5-a]pyridin-7-yl)-2,6-difluoro-N-(2,2,3-trifluoro-3-(4-fluorophenyl)propyl)benzamide] yielded a pIC50 [1, 6] of 9.10.
Molecule `Nc1nc2cc(-c3ccc(C(F)(F)F)c(C(=O)NCC(F)(F)[C@@H](F)c4ccc(F)cc4)c3F)ccn2n1` [Example 286, (S)-3-(2-amino-[1,2,4]triazolo[1,5-a]pyridin-7-yl)-2-fluoro-N-(2,2,3-trifluoro-3-(4-fluorophenyl)propyl)-6-(trifluoromethyl)benzamide] has a pIC50 [1, 6] of 9.00.
`Nc1nc2cc(-c3ccc(F)c(C(=O)NCC(F)(F)[C@H](F)c4ccc(F)cc4)c3F)ccn2n1` [Example 287, (R)-3-(2-amino-[1,2,4]triazolo[1,5-a]pyridin-7-yl)-2,6-difluoro-N-(2,2,3-trifluoro-3-(4-fluorophenyl)propyl)benzamide] was tested, and the pIC50 [1, 6] was 9.10.
`Nc1nc2cc(-c3ccc(Cl)c(C(=O)NCC(F)(F)[C@H](F)c4ccc(F)cc4)c3F)ccn2n1` [Example 288, (R)-3-(2-amino-[1,2,4]triazolo[1,5-a]pyridin-7-yl)-6-chloro-2-fluoro-N-(2,2,3-trifluoro-3-(4-fluorophenyl)propyl)benzamide] showed a pIC50 [1, 6] of 9.00.
`Nc1nc2cc(-c3ccc(C(F)(F)F)c(C(=O)NCC(F)(F)[C@H](F)c4ccc(F)cc4)c3F)ccn2n1` [Example 289, (R)-3-(2-amino-[1,2,4]triazolo[1,5-a]pyridin-7-yl)-2-fluoro-N-(2,2,3-trifluoro-3-(4-fluorophenyl)propyl)-6-(trifluoromethyl)benzamide] showed a pIC50 [1, 6] of 8.77.
Molecule `CC(CCNC(=O)c1cccc(-c2ccn3nc(N)nc3c2)c1)c1ccccc1` (stereo not drawn) [Example 316, 3-(2-amino-[1,2,4]triazolo[1,5-a]pyridin-7-yl)-N-(3-phenylbutyl)benzamide] has a pIC50 [1, 3] of 7.60 and a pIC50 ([1]; Homo sapiens, read-out: pMLKL IC50, Table 22, compounds of the present invention) of 7.60.
`COc1c(-c2ccc(C)c(C(=O)NCC[C@H](O)c3ccc(Cl)cc3)c2F)ccn2nc(N)nc12` [compound 133] gave a pIC50 [2, 4] of 8.42.
